The source of these data is patent US20230295109A1, “PYRIDINONE COMPOUNDS FOR THE TREATMENT OF AUTOIMMUNE DISEASE” (F. Hoffmann-La Roche AG, priority 2020, published 2023).

In this experiment the target is T1, TLR9 (Homo sapiens, UniProt Q9NR96).
T1 sequence (Q9NR96 26-1032): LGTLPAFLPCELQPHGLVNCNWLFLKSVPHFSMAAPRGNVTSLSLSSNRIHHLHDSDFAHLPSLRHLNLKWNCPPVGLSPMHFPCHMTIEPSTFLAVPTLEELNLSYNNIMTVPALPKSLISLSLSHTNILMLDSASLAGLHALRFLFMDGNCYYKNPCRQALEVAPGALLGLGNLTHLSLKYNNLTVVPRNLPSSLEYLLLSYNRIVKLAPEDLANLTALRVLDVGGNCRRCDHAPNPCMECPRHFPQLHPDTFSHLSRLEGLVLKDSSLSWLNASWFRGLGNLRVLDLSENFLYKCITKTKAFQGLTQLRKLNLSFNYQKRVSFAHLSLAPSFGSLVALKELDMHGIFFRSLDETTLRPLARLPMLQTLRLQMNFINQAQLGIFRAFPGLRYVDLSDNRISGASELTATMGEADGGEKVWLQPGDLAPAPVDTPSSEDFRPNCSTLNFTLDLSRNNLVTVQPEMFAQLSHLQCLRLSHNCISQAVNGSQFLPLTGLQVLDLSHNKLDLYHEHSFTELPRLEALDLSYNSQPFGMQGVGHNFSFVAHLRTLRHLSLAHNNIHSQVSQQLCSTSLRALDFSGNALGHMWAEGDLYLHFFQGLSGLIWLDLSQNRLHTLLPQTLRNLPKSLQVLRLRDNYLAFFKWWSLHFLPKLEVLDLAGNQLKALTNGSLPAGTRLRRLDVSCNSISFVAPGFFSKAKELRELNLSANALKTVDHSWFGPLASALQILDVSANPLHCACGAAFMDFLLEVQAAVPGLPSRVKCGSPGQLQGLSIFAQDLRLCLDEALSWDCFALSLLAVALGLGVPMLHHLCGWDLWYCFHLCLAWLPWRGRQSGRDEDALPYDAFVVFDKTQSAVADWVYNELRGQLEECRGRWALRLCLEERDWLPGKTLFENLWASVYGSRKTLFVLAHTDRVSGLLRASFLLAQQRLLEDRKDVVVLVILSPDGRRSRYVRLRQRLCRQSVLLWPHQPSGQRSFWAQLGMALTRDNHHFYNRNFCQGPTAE
The experiment is described as follows: HEK293-Blue-hTLR-9 cells assay. The experiment is classed as cell-based. Details: host or cells: HEK293 (HEK-Blue hTLR9). The conditions noted are these: HEK293-Blue-hTLR9 cells, ODN2006 stimulation, 20 hrs, SEAP reporter; read-out: HEK/hTLR9 IC50. From the text:
A stable HEK293-Blue-hTLR-9 cell line was purchased from InvivoGen (Cat.#: hkb-htlr9, San Diego, California, USA). These cells were originally designed for studying the stimulation of human TLR9 by monitoring the activation of NF-κB. A SEAP (secreted embryonic alkaline phosphatase) reporter gene was placed under the control of the IFN-β minimal promoter fused to five NF-κB and AP-1-binding sites. The SEAP was induced by activating NF-κB and AP-1 via stimulating HEK-Blue hTLR9 cells with TLR9 ligands. Therefore the reporter expression was declined by TLR9 antagonist under the stimulation of a ligand, such as ODN2006 (Cat.#: tlrl-2006-1, Invivogen, San Diego, California, USA), for incubation of 20 hrs. The cell culture supernatant SEAP reporter activity was determined using QUANTI-Blue™ kit (Cat.#: rep-qb1, Invivogen, San Diego, California, USA) at a wavelength of 640 nm, a detection medium that turns purple or blue in the presence of alkaline phosphatase.
HEK293-Blue-hTLR9 cells were incubated at a density of 250,000~450,000 cells/mL in a volume of 170 µL in a 96-well plate in Dulbecco’s Modified Eagle’s medium (DMEM) containing 4.5 g/L glucose, 50 U/mL penicillin, […], […], 2 mM L-glutamine, 10% (v/v) heat-inactivated fetal bovine serum with addition of 20 µL test compound in a serial dilution in the presence of final DMSO at 1% and 10 µL of 20uM ODN2006 in above DMEM, perform incubation under 37° C. in a CO2 incubator for 20 hrs. Then 20 µL of the supernatant from each well was incubated with 180 µL Quanti-blue substrate solution at 37° C. for 2 h and the absorbance was read at 620 \~655 nm using a spectrophotometer. The signaling pathway that TLR9 activation leads to downstream NF-κB activation has been widely accepted, and therefore similar reporter assay was modified for evaluating TLR9 antagonist.
In the case of `Cc1cc(-c2ccc(N3CCC(N4CCNCC4)CC3)nc2C(C)C)cn(C)c1=O` [Example 18, 5-[2-isopropyl-6-(4-piperazin-1-yl-1-piperidyl)-3-pyridyl]-1,3-dimethyl-pyridin-2-one], the IC50 is 798 nM. On to `Cc1cc(-c2ccc(N3CCN(Cc4ccc(N5CCNCC5)cc4)CC3)nc2C(C)C)cn(C)c1=O` [Example 13, 5-[2-isopropyl-6-[4-[(4-piperazin-1-ylphenyl)methyl]piperazin-1-yl]-3-pyridyl]-1,3-dimethyl-pyridin-2-one], for which the IC50 came out at 111 nM.

As for `CCc1nc(N2CCN(Cc3cnc(N4CCOC[C@@H](N)C4)nc3)CC2)ccc1-c1cc(C)c(=O)n(C)c1` [Example 4, 5-[6-[4-[[2-[(6S)-6-amino-1,4-oxazepan-4-yl]pyrimidin-5-yl]methyl]piperazin-1-yl]-2-ethyl-3-pyridyl]-1,3-dimethyl-pyridin-2-one], the IC50 came to 318 nM. Turning to `Cc1cc(-c2ccc(N3CCN(Cc4cnc(N5CCNCC5)cn4)CC3)nc2C(C)C)cn(C)c1=O` [Example 8, 5-[2-isopropyl-6-[4-[(5-piperazin-1-ylpyrazin-2-yl)methyl]piperazin-1-yl]-3-pyridyl]-1,3-dimethyl-pyridin-2-one], the IC50 was 176 nM.

Turning to `Cc1cc(-c2ccc(N3CCN(Cc4ncc(N5CCNCC5)cn4)CC3)nc2C(C)C)cn(C)c1=O` [Example 12, 5-[2-isopropyl-6-[4-[(5-piperazin-1-ylpyrimidin-2-yl)methyl]piperazin-1-yl]-3-pyridyl]-1,3-dimethyl-pyridin-2-one], the IC50 came out at 763 nM. `Cc1cc(-c2ccc(N3CCN(Cc4ccc(N5CCNCC5)nc4)CC3)nc2C(C)C)cn(C)c1=O` [Example 11, 5-[2-isopropyl-6-[4-[(6-piperazin-1-yl-3-pyridyl)methyl]piperazin-1-yl]-3-pyridyl]-1,3-dimethyl-pyridin-2-one]: the IC50 worked out at 136 nM. The same measure for `CCc1nc(N2CCN(Cc3ccc(N4CC5(CNCCO5)C4)nc3)CC2)ccc1-c1cc(C)c(=O)n(C)c1` [Example 2, 5-[2-ethyl-6-[4-[[6-(5-oxa-2,8-diazaspiro[3.5]nonan-2-yl)-3 pyridyl]methyl]piperazin-1-yl]-3-pyridyl]-1,3-dimethyl-pyridin-2-one]: 212 nM. `CCc1nc(N2CCN3CCN(c4cnc(N5CC6(CNCCO6)C5)nc4)CC3C2)ccc1-c1cc(C)c(=O)n(C)c1` (stereo not shown) [Example 19, 5-[2-ethyl-6-[2-[2-(5-oxa-2,8-diazaspiro[3.5]nonan-2-yl)pyrimidin-5-yl]-3,4,6,7,9,9a-hexahydro-1H-pyrazino[1,2-a]pyrazin-8-yl]-3-pyridyl]-1,3-dimethyl-pyridin-2-one]: the IC50 is 833 nM. With `Cc1cc(-c2ccc(N3CCN(Cc4cnc(N5CC6(CNCCO6)C5)nc4)CC3)nc2C(C)C)cn(C)c1=O` [Example 6, 5-[2-isopropyl-6-[4-[[2-(5-oxa-2,8-diazaspiro[3.5]nonan-2-yl)pyrimidin-5-yl]methyl]piperazin-1-yl]-3-pyridyl]-1,3-dimethyl-pyridin-2-one] the figure was 198 nM. The same measure for `Cc1cc(-c2ccc(N3CCN(Cc4ccc(N5CCNCC5)cn4)CC3)nc2C(C)C)cn(C)c1=O` [Example 7, 5-[2-isopropyl-6-[4-[(5-piperazin-1-yl-2-pyridyl)methyl]piperazin-1-yl]-3-pyridyl]-1,3-dimethyl-pyridin-2-one]: 143 nM. With `Cc1cc(-c2ccc(N3CCN(Cc4cnc(N5CC(C)(N)C5)nc4)CC3)nc2C(C)C)cn(C)c1=O` [Example 10, 5-[6-[4-[[2-(3-amino-3-methyl-azetidin-1-yl)pyrimidin-5-yl]methyl]piperazin-1-yl]-2-isopropyl-3-pyridyl]-1,3-dimethyl-pyridin-2-one] the figure was 139 nM; with `CCc1nc(N2CCN(Cc3cnc(N4CC5(CNCCO5)C4)nc3)CC2)ccc1-c1cc(C)c(=O)n(C)c1` [Example 1, 5-[2-ethyl-6-[4-[[2-(5-oxa-2,8-diazaspiro[3.5]nonan-2-yl)pyrimidin-5-yl]methyl]piperazin-1-yl]-3-pyridyl]-1,3-dimethyl-pyridin-2-one], 700 nM; with `Cc1cc(-c2ccc(N3CCN(Cc4ccc(N5CCNCC5)cc4)CC3)nc2C(F)F)cn(C)c1=O` [Example 17, 5-[2-(difluoromethyl)-6-[4-[(4-piperazin-1-ylphenyl)methyl]piperazin-1-yl]-3-pyridyl]-1,3-dimethyl-pyridin-2-one], 68 nM.

On to `Cc1cc(-c2ccc(N3CCN4CCN(c5ccc(N6CCNCC6)nc5)CC4C3)nc2C(C)C)cn(C)c1=O` (stereo not shown) [Example 16, 5-[2-isopropyl-6-[8-(6-piperazin-1-yl-3-pyridyl)-3,4,6,7,9,9a-hexahydro-1H-pyrazino[1,2-a]pyrazin-2-yl]-3-pyridyl]-1,3-dimethyl-pyridin-2-one], for which the IC50 was found to be 324 nM.

In the case of `CCc1nc(N2CCN(Cc3cnc(N4CC(C)(N)C4)nc3)CC2)ccc1-c1cc(C)c(=O)n(C)c1` [Example 3, 5-[6-[4-[[2-(3-amino-3-methyl-azetidin-1-yl)pyrimidin-5-yl]methyl]piperazin-1-yl]-2-ethyl-3-pyridyl]-1,3-dimethyl-pyridin-2-one], the IC50 was determined as 621 nM. With `CCc1nc(N2CCN(Cc3ccc(N4CCNCC4)cc3)CC2)ccc1-c1cc(C)c(=O)n(C)c1` [Example 5, 5-[2-ethyl-6-[4-[(4-piperazin-1-ylphenyl)methyl]piperazin-1-yl]-3-pyridyl]-1,3-dimethyl-pyridin-2-one] the figure was 54 nM; with `Cc1cc(-c2ccc(N3CCN(Cc4cnc(N5CCNCC5)nc4)CC3)nc2C(C)C)cn(C)c1=O` [Example 9, 5-[2-isopropyl-6-[4-[(2-piperazin-1-ylpyrimidin-5-yl)methyl]piperazin-1-yl]-3-pyridyl]-1,3-dimethyl-pyridin-2-one], 183 nM. In the case of `Cc1cc(-c2ccc(N3CCN(c4ccc5c(n4)CCNC5)CC3)nc2C(C)C)cn(C)c1=O` [Example 15, 5-[2-isopropyl-6-[4-(5,6,7,8-tetrahydro-1,6-naphthyridin-2-yl)piperazin-1-yl]-3-pyridyl]-1,3-dimethyl-pyridin-2-one], the IC50 was determined as 803 nM.

On to `Cc1cc(-c2ccc(N3CCN(Cc4cccc(N5CCNCC5)c4)CC3)nc2C(C)C)cn(C)c1=O` [Example 14, 5-[2-isopropyl-6-[4-[(3-piperazin-1-ylphenyl)methyl]piperazin-1-yl]-3-pyridyl]-1,3-dimethyl-pyridin-2-one], for which the IC50 is 143 nM.
